≈ marks a conversion by molar mass, not a printed value.
What was measured:
[1] = test system: Mycobacterium tuberculosis; test: Antimycobacterial activity against Mycobacterium tuberculosis H37Ra after 5 days by two-fold dilution method; format: functional; conditions: 120 h
[2] = test system: Mycobacterium tuberculosis; test: Antimycobacterial activity against Mycobacterium tuberculosis H37Rv after 30 days by agar microdilution method; format: functional

Structure (SMILES)	MIC [1]	MIC [2]
CCCCCC#CC(c1ccc2c(c1)CCC(C)(C)O2)N1CCOCC1 (stereo unspecified)	> 12.5 µg/mL	3.12 µg/mL (≈ 8.78 µM)
CCOC(=O)[C@H]1N[C@@H](c2ccc(OC)cc2)[C@@]2([N+](=O)[O-])C(c3ccc(OC)cc3)Oc3ccccc3[C@@H]12 (relative stereo)	> 12.5 µg/mL	> 12.5 µg/mL
CC1(C)CCc2cc(C(C#Cc3ccccc3)N3CCCCC3)ccc2O1 (stereo unspecified)	> 12.5 µg/mL	6.25 µg/mL (≈ 17.4 µM)
CCOC(=O)[C@H]1N[C@@H](c2ccc(OC)cc2)[C@@H]([N+](=O)[O-])[C@@H]1c1ccc2c(c1)CCC(C)(C)O2 (relative stereo)	> 12.5 µg/mL	> 12.5 µg/mL
NNC(=O)c1ccncc1 [ISONIAZID]		0.75 µg/mL (≈ 5.47 µM)
CCOC(=O)[C@H]1N[C@@H](c2ccccc2)[C@@H]([N+](=O)[O-])[C@@H]1c1ccc2c(c1)CCC(C)(C)O2 (relative stereo)	> 12.5 µg/mL	12.5 µg/mL (≈ 29.4 µM)
CCOC(=O)[C@H]1N[C@@H](c2cccc([N+](=O)[O-])c2)[C@@H]([N+](=O)[O-])[C@@H]1c1ccc2c(c1)CCC(C)(C)O2 (relative stereo)	> 12.5 µg/mL	12.5 µg/mL (≈ 26.6 µM)
CC[C@@H](CO)NCCN[C@@H](CC)CO [ETHAMBUTOL]		3.25 µg/mL (≈ 15.9 µM)
CC1(C)CCc2cc(C(C#Cc3ccccc3)N3CCOCC3)ccc2O1 (stereo unspecified)	> 12.5 µg/mL	12.5 µg/mL (≈ 34.6 µM)
CCCCCCC#CC(c1ccc2c(c1)CCC(C)(C)O2)N1CCCCC1 (stereo unspecified)	> 12.5 µg/mL	1.56 µg/mL (≈ 4.24 µM)
CCCCCCC#CC(c1ccc2c(c1)CCC(C)(C)O2)N1CCOCC1 (stereo unspecified)	> 12.5 µg/mL	
CCOC(=O)[C@H]1N[C@@H](c2ccc([N+](=O)[O-])cc2)[C@@]2([N+](=O)[O-])C(c3ccc(OC)cc3)Oc3ccccc3[C@@H]12 (relative stereo)	> 12.5 µg/mL	12.5 µg/mL (≈ 24.1 µM)

— ChEMBL document CHEMBL3044735, “Search of antimycobacterial activities in hybrid molecules with benzopyran skeleton” (2011)
